From ChEMBL document CHEMBL5356995, “Aurones and derivatives as promising New Delhi metallo-β-lactamase (NDM-1) inhibitors” (Bioorg Med Chem, 2024)

How the values were obtained:
[1] = target: Metallo-beta-lactamase type 2 (Bacteria) (UniProt C7C422); experiment: Inhibition of bacterial NDM-1 assessed as substrate hydrolysis at 50 uM using imipenem as substrate by spectrophotometric analysis relative to control
Bacteria [2] = experiment: Inhibition of bacterial VIM-2 assessed as substrate hydrolysis at 50 uM using imipenem as substrate by spectrophotometric analysis relative to control
Bacteria [3] = experiment: Inhibition of bacterial IMP-1 assessed as substrate hydrolysis at 50 uM using imipenem as substrate by spectrophotometric analysis relative to control
[4] = target: T1, Metallo-beta-lactamase type 2 (Bacteria, UniProt C7C422); experiment: Competitive inhibition of NDM-1 using imipenem as substrate by spectrophotometric analysis
T1 sequence (C7C422 whole entry): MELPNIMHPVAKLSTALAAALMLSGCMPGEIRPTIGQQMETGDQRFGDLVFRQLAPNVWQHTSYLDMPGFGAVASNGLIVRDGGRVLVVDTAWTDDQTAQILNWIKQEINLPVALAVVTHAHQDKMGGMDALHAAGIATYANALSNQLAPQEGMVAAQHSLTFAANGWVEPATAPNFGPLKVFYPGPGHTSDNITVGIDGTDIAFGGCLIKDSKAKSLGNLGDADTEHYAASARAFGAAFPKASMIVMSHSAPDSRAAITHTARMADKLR

Klebsiella pneumoniae = experiment: Potentiation of meropenem induced antibacterial activity against blaNDM-1 producing Klebsiella pneumoniae SI-518 assessed as reduction in meropenem MIC at 32 ug/ml (reference value: 128 ug/ml); assay type: functional; settings: dose 32 µg/ml
Escherichia coli [5] = experiment: Potentiation of meropenem induced antibacterial activity against blaNDM-1 producing Escherichia coli SI-004M assessed as reduction in meropenem MIC at 32 ug/ml (reference value: 64 ug/ml); assay type: functional; settings: dose 32 µg/ml
Escherichia coli [6] = experiment: Potentiation of meropenem induced antibacterial activity against blaNDM-4 producing Escherichia coli SI-G001 assessed as reduction in meropenem MIC at 32 ug/ml (reference value: 128 ug/ml); assay type: functional; settings: dose 32 µg/ml
[7] = target: T1, Metallo-beta-lactamase type 2; experiment: Inhibition of bacterial NDM-1
[8] = target: Metallo-beta-lactamase type 2 (Bacteria) (UniProt C7C422); experiment: Inhibition of bacterial NDM-1 assessed as substrate hydrolysis at 100 uM using imipenem as substrate by spectrophotometric analysis relative to control
Bacteria [9] = experiment: Inhibition of bacterial VIM-2 assessed as substrate hydrolysis at 100 uM using imipenem as substrate by spectrophotometric analysis relative to control
Bacteria [10] = experiment: Inhibition of bacterial IMP-1 assessed as substrate hydrolysis at 100 uM using imipenem as substrate by spectrophotometric analysis relative to control

Sequence of Metallo-beta-lactamase type 2 (Bacteria) (C7C422 whole entry): as above

Compound | inhibition [1] | inhibition (Bacteria [2]) | inhibition (Bacteria [3]) | other results
O=C1/C(=C/c2cn(CCCc3ccccc3)c3ccccc23)Oc2cc(O)cc(O)c21 | 68.7% | < 10% | 41% | Ki [4]: 17 µM; MIC (Klebsiella pneumoniae): 32 µg/mL; MIC (Escherichia coli [5]): 32 µg/mL; MIC (Escherichia coli [6]): 64 µg/mL
O=C(O)CN1CCN(CC(=O)O)CCN(CC(=O)O)CC1 |  |  |  | Ki [7]: 5.1 µM
O=C1/C(=C/c2ccc(N3CCCCC3)cc2)Oc2cc(O)cc(O)c21 | 74% | 17% | 20% | Ki [4]: 4.8 µM; MIC (Klebsiella pneumoniae): 64 µg/mL; MIC (Escherichia coli [5]): 64 µg/mL; MIC (Escherichia coli [6]): 128 µg/mL
O=C1/C(=C/c2ccc(O)c(O)c2)Cc2cc(O)cc(O)c21 |  |  |  | Ki [7]: 4.1 µM
O=C(O)[C@H](CCCn1c(-c2ccccc2)n[nH]c1=S)N(Cc1c[nH]cn1)Cc1c[nH]cn1 |  |  |  | MIC (Klebsiella pneumoniae): ≤ 0.5 µg/mL; MIC (Escherichia coli [5]): ≤ 0.5 µg/mL; MIC (Escherichia coli [6]): ≤ 0.5 µg/mL; inhibition [8]: 97%; inhibition (Bacteria [9]): 96%; inhibition (Bacteria [10]): 40%
N[C@@H](CN[C@@H](CN[C@@H](CC(O)O)C(=O)O)C(=O)O)C(=O)O |  |  |  | Ki [7]: 0.011 µM
C=CCn1cc(/C=C2\Oc3cc(O)cc(O)c3C2=O)c2ccccc21 | < 10% | < 10% | 16% | 
CN1CCN(c2ccc(/C=C3\Oc4cc(O)ccc4C3=O)cc2)CC1 | < 10% | < 10% | 19% | 
O=C1/C(=C/c2ccc(Cl)cc2)Oc2cc(O)cc(O)c21 | 11% | < 10% | 14% | 
CC[C@H](C)Cn1cc(/C=C2\Oc3cc(O)cc(O)c3C2=O)c2ccccc21 | 49% | < 10% | 46% | 
O=C1/C(=C/c2cn(CC3CCCCC3)c3ccccc23)Oc2cc(O)cc(O)c21 | 72% | < 10% | 44% | Ki [4]: 2.5 µM; MIC (Klebsiella pneumoniae): 16 µg/mL; MIC (Escherichia coli [5]): 64 µg/mL; MIC (Escherichia coli [6]): 64 µg/mL
COc1cc(OC)c2c(c1)O/C(=C\c1ccc(F)cc1F)C2=O | 35% | < 10% | 32% | 
COc1ccc(/C=C2\Oc3cc(O)cc(O)c3C2=O)c(OC)c1OC | 14% | < 10% | 20% | 
O=C1/C(=C/c2cn(Cc3ccccc3Br)c3ccccc23)Oc2cc(O)cc(O)c21 | < 10% | < 10% | 23% | 
O=C1/C(=C/c2cn(Cc3cccc(O)c3)c3ccccc23)Oc2cc(O)cc(O)c21 | 78% | < 10% | 31% | Ki [4]: 16 µM; MIC (Klebsiella pneumoniae): 64 µg/mL; MIC (Escherichia coli [5]): 64 µg/mL; MIC (Escherichia coli [6]): 128 µg/mL
O=C1/C(=C/c2ccc(-n3ccnc3)cc2)Oc2cc(O)cc(O)c21 | 51% | < 10% | 23% | 
Cn1cc(/C=C2\Oc3cc(O)cc(O)c3C2=O)c2ccccc21 | 46% | < 10% | 28% | 
CC(C)CCn1cc(/C=C2\Oc3cc(O)cc(O)c3C2=O)c2ccccc21 | 18% | < 10% | 47.1% | 
Cn1cc(/C=C2\Oc3cccc(O)c3C2=O)c2cc(Br)ccc21 | < 10% | < 10% | 21.4% | 
CC(C)(C)CCn1cc(/C=C2\Oc3cc(O)cc(O)c3C2=O)c2ccccc21 | 11.2% | < 10% | 28% | 
O=C1/C(=C/c2cn(Cc3cccc(Br)c3)c3ccccc23)Oc2cc(O)cc(O)c21 | 69% | < 10% | 43% | Ki [4]: 5.5 µM; MIC (Klebsiella pneumoniae): 32 µg/mL; MIC (Escherichia coli [5]): 32 µg/mL; MIC (Escherichia coli [6]): 64 µg/mL
COc1cc(OC)c2c(c1)O/C(=C\c1ccc(-c3cccs3)cc1)C2=O | 39% | < 10% | 24% | 
COc1ccc(/C=C2\Oc3cc(OC)cc(OC)c3C2=O)c(OC)c1 | < 10% | < 10% | < 10% | 
COc1ccc(/C=C2\Oc3ccccc3C2=O)c(OC)c1OC | < 10% | < 10% | < 10% | 
CCc1ccc(/C=C2\Oc3cc(O)cc(O)c3C2=O)cc1 | 55% | < 10% | 24.9% | 

More lines, main results first:

inhibition [1] | inhibition (Bacteria [2]) | inhibition (Bacteria [3]) | Compound | other results
55% | < 10% | 27% | CN(C)c1ccc(/C=C2\Oc3cc(O)cc(O)c3C2=O)c(O)c1 | 
< 10% | < 10% | < 10% | COc1cc(O)ccc1/C=C1\Oc2ccccc2C1=O | 
< 10% | < 10% | < 10% | O=C1/C(=C/c2ccccc2O)Oc2cc(O)ccc21 | 
< 10% | < 10% | 12% | Cc1ccc(O)c(/C=C2\Oc3cc(O)cc(O)c3C2=O)c1 | 
17% | < 10% | 17.9% | COc1ccc(/C=C2\Oc3cc(O)ccc3C2=O)c(OC)c1 | 
< 10% | < 10% | 14% | O=C1/C(=C/c2ccccc2O)Oc2cc(O)cc(O)c21 | 
< 10% | < 10% | < 10% | O=C1/C(=C/c2c(O)cc(O)cc2O)Oc2cc(O)ccc21 | 
52% | < 10% | 43.6% | COc1ccc(/C=C2\Oc3cc(O)cc(O)c3C2=O)c(OC)c1 | 
< 10% | < 10% | < 10% | O=C1/C(=C/c2ccc(O)cc2O)Oc2cc(O)ccc21 | 
< 10% | 13% | 15% | O=C1/C(=C/c2ccc(O)cc2O)Oc2c1ccc(O)c2I | 
84.5% | < 10% | 49% | COc1ccc(/C=C2\Oc3c(ccc(O)c3O)C2=O)c(O)c1 | Ki [4]: 1.7 µM; MIC (Klebsiella pneumoniae): 32 µg/mL; MIC (Escherichia coli [5]): 32 µg/mL; MIC (Escherichia coli [6]): 128 µg/mL
12% | < 10% | < 10% | O=C1/C(=C/c2ccc(O)c(O)c2)Oc2cccc(O)c21 | 
